Test: antimicrobial activity of the recombinant antimicrobial peptide
Assay type: cell-based
Conditions: recombinant histonin II purified from E. coli BL21(DE3)/pmIF3H, compared with naturally-occurring antimicrobial peptide

Sequence: RAGLQFPVGRLLRRLLRRLLR (histonin II peptide) [recombinant antimicrobial peptide]
- antimicrobial activity: substantially the same antimicrobial activity as a naturally-occurring antimicrobial peptide

Source: US8003348B2, “Method for the mass expression of an antimicrobial peptide by co-expression of a basic antimicrobial peptide and an acidic peptide using a translational coupling system” (Korea Advanced Institute of Science and Technology, priority 2007, dated 2011)
